# Results: patent US9302999B2, “Substituted triazoles as herbicides” (E. I. DU PONT DE NEMOURS AND COMPANY, priority 2012, dated 2016)
# Where two headings read alike, the source gives them in different places.
# What was measured:
# Assay type in all cases: in vivo
# [1] = tested on: bermudagrass (Cynodon dactylon); assay: Test C pre-/postemergence: bermudagrass
# Outline: (§1)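 Visual injury scored 0–100 (100 = complete control) against untreated controls after 13–15 greenhouse days. Surfactant-containing solvent formulations applied either to soil after sowing (loam/sand) or over 1- to 4-leaf plants, 2–18 cm tall.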
# [2] = tested on: woolly cupgrass (Eriochloa villosa); assay: Test C pre-/postemergence: woolly cupgrass
# Outline: as §1
# [3] = tested on: Russian thistle (Salsola iberica); assay: Test D pre-/postemergence: Russian thistle
# Text: (§2) Seeds of plant species selected from bluegrass (annual bluegrass, Poa annua), blackgrass (Alopecurus myosuroides), canarygrass (Phalaris minor), chickweed (common chickweed, Stellaria media), galium (catchweed bedstraw, Galium aparine), bromegrass, downy (downy bromegrass, Bromus tectorum), field poppy (Papaver rhoeas), field violet (Viola arvensis), foxtail, green (green foxtail, Setaria viridis), deadnettle (henbit deadnettle, Lamium amplexicaule), ryegrass, Italian (Italian ryegrass, Lolium multiflorum), kochia (Kochia scoparia), lambsquarters (Chenopodium album), oilseed rape (Brassica napus), pigweed (Amaranthus retroflexus), Russian thistle (Salsola iberica), chamomile (scentless chamomile, Matricaria inodora), speedwell (bird's-eye speedwell, Veronica persica), barley, spring (spring barley, Hordeum vulgare), wheat, spring (spring wheat, Triticum aestivum), buckwheat, wild (wild buckwheat, Polygonum convolvulus), mustard, wild (wild mustard, Sinapis arvensis), oat, wild (wild oat, Avena fatua), radish, wild (wild radish, Raphanus raphanistrum), windgrass (Apera spica-venti), barley, winter (winter barley, Hordeum vulgare), and wheat, winter (winter wheat, Triticum aestivum) were planted into a silt loam soil and treated preemergence with test chemicals formulated in a non-phytotoxic solvent mixture which included a surfactant. At the same time, these same crop and weed species were planted in pots containing the planting medium comprising spaghnum peat moss, vermiculite, wetting agent and starter nutrients and treated with postemergence applications of the test chemicals formulated in the same manner. Plants ranged in height from 2 to 18 cm (1- to 4-leaf stage).
# (§3) Treated plants and controls were maintained in a controlled growth environment for 14 to 21 days after which time all species were compared to controls and visually evaluated. Plant response ratings, summarized in Table D, are based on a scale of 0 to 100 where 0 is no effect and 100 is complete control. A dash (-) response means no test result.
# [4] = tested on: barnyardgrass (Echinochloa crus-galli); assay: Test C flooded paddy test: barnyardgrass; details: Echinochloa crus-galli, scale 0 to 100 (0 no effect, 100 complete control), read-out: Plant response rating, Barnyardgrass; for pest or weed control at 62 g/ha: 62 g ai/ha; for pest or weed control at 125 g/ha: 125 g ai/ha; for pest or weed control at 250 g/ha: 250 g ai/ha; for pest or weed control at 31 g/ha: 31 g ai/ha
# Outline: (§4)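 Rating: visual, 0–100 (100 = complete control), versus untreated controls after 13 to 15 greenhouse days. Treatment went into paddy water held at 3 cm over the soil, on plants grown to two leaves.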
# [5] = tested on: buckwheat, wild (wild buckwheat, Polygonum convolvulus); assay: Test D pre-/postemergence: buckwheat, wild
# Text: as §2, §3
# [6] = tested on: chamomile (scentless chamomile, Matricaria inodora); assay: Test D pre-/postemergence: chamomile
# Text: as §2, §3
# [7] = tested on: surinam grass (Brachiaria decumbens); assay: Test C pre-/postemergence: surinam grass
# Outline: as §1
# [8] = tested on: sedge, umbrella (small-flower umbrella sedge, Cyperus difformis); assay: Test C flooded paddy test: sedge, umbrella; details: Cyperus difformis, scale 0 to 100 (0 no effect, 100 complete control), read-out: Plant response rating, Sedge, Umbrella; for pest or weed control at 62 g/ha: 62 g ai/ha; for pest or weed control at 125 g/ha: 125 g ai/ha; for pest or weed control at 250 g/ha: 250 g ai/ha; for pest or weed control at 31 g/ha: 31 g ai/ha
# Outline: as §4
# [9] = Postemergence, 31 g ai/ha, scale 0 to 100 (0 no effect, 100 complete control)
# [10] = Postemergence, 62 g ai/ha, scale 0 to 100 (0 no effect, 100 complete control)
# [11] = Postemergence, 125 g ai/ha, scale 0 to 100, 0 no effect, 100 complete control
# [12] = Postemergence, 250 g ai/ha, scale 0 to 100
# [13] = Preemergence, 31 g ai/ha, scale of 0 to 100, 0 is no effect, 100 is complete control
# [14] = Preemergence, 62 g ai/ha, scale 0 to 100, 0 no effect, 100 complete control
# [15] = Preemergence, 125 g ai/ha, scale 0 to 100, 0 no effect, 100 complete control
# [16] = Preemergence, 250 g ai/ha, scale 0 to 100, 0 no effect, 100 complete control
# [17] = Postemergence, 250 g ai/ha, scale 0 to 100 (0 no effect, 100 complete control)
# [18] = Postemergence, 16 g ai/ha, scale 0 to 100
# [19] = Preemergence, 16 g ai/ha, scale 0 to 100 (0 no effect, 100 complete control)
# [20] = Preemergence, 31 g ai/ha, scale 0 to 100 (0 no effect, 100 complete control)
# [21] = Preemergence, 62 g ai/ha, scale 0 to 100
# [22] = Preemergence, 250 g ai/ha, scale 0 to 100
# [23] = Flood (flooded paddy test), visual rating after 13 to 15 days
# [24] = Preemergence, 125 g ai/ha, scale 0 to 100
# [25] = Preemergence, 62 g ai/ha, scale of 0 to 100, 0 is no effect, 100 is complete control
smiles,measurement,setting,value
"Cc1nn(-c2ccc(F)cc2)nc1Cc1ccnc(C(F)(F)F)c1 [Compound 16, 4-[[2-(4-fluorophenyl)-5-methyl-2H-1,2,3-triazol-4-yl]methyl]-2-(trifluoromethyl)pyridine]","Plant response rating, Bermudagrass",[1]; [9],5
same,"Plant response rating, Bermudagrass",[1]; [10],5
same,"Plant response rating, Bermudagrass",[1]; [11],15
same,"Plant response rating, Bermudagrass",[1]; [12],65
same,"Plant response rating, Bermudagrass",[1]; [13],5
same,"Plant response rating, Bermudagrass",[1]; [14],25
same,"Plant response rating, Bermudagrass",[1]; [15],75
same,"Plant response rating, Bermudagrass",[1]; [16],75
same,"Plant response rating, Cupgrass, Woolly",[2]; [9],5
same,"Plant response rating, Cupgrass, Woolly",[2]; [10],20
same,"Plant response rating, Cupgrass, Woolly",[2]; [11],65
same,"Plant response rating, Cupgrass, Woolly",[2]; [12],75
same,Plant response rating: Russian Thistle,[3]; [9],95
same,Plant response rating: Russian Thistle,[3]; [10],100
same,Plant response rating: Russian Thistle,[3]; [11],100
same,Plant response rating: Russian Thistle,[3]; [17],100
same,"Plant response rating, Russian Thistle",[3]; [18],90
same,"Plant response rating, Russian Thistle",[3]; [19],0
same,"Plant response rating, Russian Thistle",[3]; [20],35
same,"Plant response rating, Russian Thistle",[3]; [21],40
same,"Plant response rating, Russian Thistle",[3]; [22],90
same,pest or weed control at 62 g/ha,[4]; [23],65%
same,pest or weed control at 125 g/ha,[4]; [23],70%
same,pest or weed control at 250 g/ha,[4]; [23],80%
same,pest or weed control at 31 g/ha,[4]; Flood,25%
same,"Plant response rating: Buckwheat, Wild",[5]; [9],0
same,"Plant response rating: Buckwheat, Wild",[5]; [10],10
same,"Plant response rating: Buckwheat, Wild",[5]; [11],20
same,"Plant response rating: Buckwheat, Wild",[5]; [17],50
same,"Plant response rating, Buckwheat, Wild",[5]; [18],0
same,"Plant response rating, Buckwheat, Wild",[5]; [19],0
same,"Plant response rating, Buckwheat, Wild",[5]; [20],0
same,"Plant response rating, Buckwheat, Wild",[5]; [21],0
same,"Plant response rating, Buckwheat, Wild",[5]; [24],0
same,"Plant response rating, Buckwheat, Wild",[5]; [22],20
same,Plant response rating: Chamomile,[6]; [9],0
same,Plant response rating: Chamomile,[6]; [10],0
same,Plant response rating: Chamomile,[6]; [11],5
same,Plant response rating: Chamomile,[6]; [17],10
same,"Plant response rating, Chamomile",[6]; [18],0
same,"Plant response rating, Chamomile",[6]; [19],0
same,"Plant response rating, Chamomile",[6]; [20],0
same,"Plant response rating, Chamomile",[6]; [21],25
same,"Plant response rating, Chamomile",[6]; [24],70
same,"Plant response rating, Chamomile",[6]; [22],100
same,"Plant response rating, Surinam Grass",[7]; [9],5
same,"Plant response rating, Surinam Grass",[7]; [10],5
same,"Plant response rating, Surinam Grass",[7]; [11],10
same,"Plant response rating, Surinam Grass",[7]; [12],45
same,pest or weed control at 62 g/ha,[8]; [23],90%
same,pest or weed control at 125 g/ha,[8]; [23],95%
same,pest or weed control at 250 g/ha,[8]; [23],95%
same,pest or weed control at 31 g/ha,[8]; Flood,80%
"Cc1nn(-c2ccc(F)cc2)nc1Oc1ccnc(C(F)(F)F)c1 [Compound 129, 4-[[2-(4-fluorophenyl)-5-methyl-2H-1,2,3-triazol-4-yl]oxy]-2-(trifluoromethyl)pyridine]","Plant response rating, Bermudagrass",[1]; [9],40
same,"Plant response rating, Bermudagrass",[1]; [10],45
same,"Plant response rating, Bermudagrass",[1]; [11],60
same,"Plant response rating, Bermudagrass",[1]; [12],70
same,"Plant response rating, Bermudagrass",[1]; [13],98
same,"Plant response rating, Bermudagrass",[1]; [14],98
same,"Plant response rating, Bermudagrass",[1]; [15],98
same,"Plant response rating, Bermudagrass",[1]; [16],98
same,"Plant response rating, Cupgrass, Woolly",[2]; [9],35
same,"Plant response rating, Cupgrass, Woolly",[2]; [10],65
same,"Plant response rating, Cupgrass, Woolly",[2]; [11],65
same,"Plant response rating, Cupgrass, Woolly",[2]; [12],70
same,"Plant response rating, Cupgrass, Woolly",[2]; [13],80
same,"Plant response rating, Cupgrass, Woolly",[2]; [25],95
same,"Plant response rating, Cupgrass, Woolly",[2]; [15],98
same,"Plant response rating, Cupgrass, Woolly",[2]; [16],98
same,Plant response rating: Russian Thistle,[3]; [9],98
same,Plant response rating: Russian Thistle,[3]; [10],100
same,Plant response rating: Russian Thistle,[3]; [11],100
same,Plant response rating: Russian Thistle,[3]; [17],100
same,"Plant response rating, Russian Thistle",[3]; [18],98
same,"Plant response rating, Russian Thistle",[3]; [19],80
same,"Plant response rating, Russian Thistle",[3]; [20],100
same,"Plant response rating, Russian Thistle",[3]; [21],100
same,"Plant response rating, Russian Thistle",[3]; [24],100
same,"Plant response rating, Russian Thistle",[3]; [22],100
same,pest or weed control at 125 g/ha,[4]; [23],80%
same,pest or weed control at 250 g/ha,[4]; [23],85%
same,pest or weed control at 31 g/ha,[4]; Flood,55%
same,pest or weed control at 62 g/ha,[4]; Flood,75%
same,"Plant response rating: Buckwheat, Wild",[5]; [9],60
same,"Plant response rating: Buckwheat, Wild",[5]; [10],80
same,"Plant response rating: Buckwheat, Wild",[5]; [11],100
same,"Plant response rating: Buckwheat, Wild",[5]; [17],100
same,"Plant response rating, Buckwheat, Wild",[5]; [18],60
same,"Plant response rating, Buckwheat, Wild",[5]; [19],0
same,"Plant response rating, Buckwheat, Wild",[5]; [20],0
same,"Plant response rating, Buckwheat, Wild",[5]; [21],0
same,"Plant response rating, Buckwheat, Wild",[5]; [24],70
same,"Plant response rating, Buckwheat, Wild",[5]; [22],100
same,Plant response rating: Chamomile,[6]; [9],30
same,Plant response rating: Chamomile,[6]; [10],30
same,Plant response rating: Chamomile,[6]; [11],30
same,Plant response rating: Chamomile,[6]; [17],35
same,"Plant response rating, Chamomile",[6]; [18],20
same,"Plant response rating, Chamomile",[6]; [19],0
same,"Plant response rating, Chamomile",[6]; [20],30
same,"Plant response rating, Chamomile",[6]; [21],30
same,"Plant response rating, Chamomile",[6]; [24],30
same,"Plant response rating, Chamomile",[6]; [22],100
same,"Plant response rating, Surinam Grass",[7]; [9],45
same,"Plant response rating, Surinam Grass",[7]; [10],45
same,"Plant response rating, Surinam Grass",[7]; [11],50
same,"Plant response rating, Surinam Grass",[7]; [12],60
same,"Plant response rating, Surinam Grass",[7]; [13],95
same,"Plant response rating, Surinam Grass",[7]; [25],95
same,"Plant response rating, Surinam Grass",[7]; [15],98
same,"Plant response rating, Surinam Grass",[7]; [16],98
same,pest or weed control at 125 g/ha,[8]; [23],85%
same,pest or weed control at 250 g/ha,[8]; [23],95%
same,pest or weed control at 31 g/ha,[8]; Flood,75%
same,pest or weed control at 62 g/ha,[8]; Flood,75%
